From patent US12521381B2, “Anticoccidial agent and method for using the same” (NIHON NOHYAKU CO., LTD., priority 2020, dated 2026)

Tested on: chicken coccidium (Eimeria tenella)
Experiment: Evaluation test of growth inhibition on chicken coccidium (Eimeria tenella)
Type: cell-based
Conditions: 48 h, mammal cells infected with sporozoite of chicken coccidium, indirect immunofluorescence, read-out: EC50 (inhibition of growth of chicken coccidium to a mature schizont)
Method: Test Example 1: Evaluation Test of Growth Inhibition on Chicken Coccidium (Eimeria tenella) Each of the benzimidazole compounds represented by General Formula (1) or salts of the compounds according to the present invention was diluted with a regulating liquid to a predetermined concentration and placed in a microtiter plate. To the dilution in the plate, mammal cells infected with a sporozoite of chicken coccidium were incubated. Forty-eight hours later, the degree of inhibition on growth of chicken coccidium to a mature schizont was examined by an indirect immunofluorescence technique, and EC50 was determined by calculation.

Structure (SMILES): FC(F)(F)C(F)(F)COc1ccc(-c2nc3cc(Br)c(Br)cc3[nH]2)cn1 [Compound 11-5, 5,6-dibromo-2-(6-(2,2,3,3,3-pentafluoropropoxy)pyrid-3-yl)benzimidazole]
- EC50: ≤ 20 µM
